Source: PubChem BioAssay (NCI)
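Cells were grown in 96-well plates and exposed to each compound for 48 hours at five concentrations; endpoints were interpolated linearly between bracketing concentrations, or set to the highest concentration if not reached. At the GI50, growth is halved. TGI is the concentration that stops growth completely.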

Legend:
Assay in all cases: inhibition of tumour cell growth, NCI panel, 48 h
UO-31 renal = test system: UO-31 renal
TK-10 renal = test system: TK-10 renal
RXF 393 renal = test system: RXF 393 renal
U251 CNS = test system: U251 CNS
MDA-MB-435 = test system: MDA-MB-435
NCI-H23 lung = test system: NCI-H23 lung
OVCAR-5 ovarian = test system: OVCAR-5 ovarian
SF-295 CNS = test system: SF-295 CNS
NCI-H226 lung = test system: NCI-H226 lung
EKVX NSCLC = test system: EKVX NSCLC
NCI/ADR-RES ovarian = test system: NCI/ADR-RES ovarian
MALME-3M melanoma = test system: MALME-3M melanoma
HOP-92 NSCLC = test system: HOP-92 NSCLC
MDA-MB-231 breast = test system: MDA-MB-231 breast
DU-145 prostate = test system: DU-145 prostate
OVCAR-3 ovarian = test system: OVCAR-3 ovarian
UACC-257 melanoma = test system: UACC-257 melanoma
PC-3 prostate = test system: PC-3 prostate
M14 melanoma = test system: M14 melanoma
UACC-62 melanoma = test system: UACC-62 melanoma
COLO 205 colon = test system: COLO 205 colon
A549 NSCLC = test system: A549 NSCLC
HCT-116 colon = test system: HCT-116 colon
A498 renal = test system: A498 renal
K-562 leukemia = test system: K-562 leukemia
SK-MEL-2 melanoma = test system: SK-MEL-2 melanoma
ACHN renal = test system: ACHN renal
HS 578T breast = test system: HS 578T breast
SK-OV-3 ovarian = test system: SK-OV-3 ovarian
HCT-15 colon = test system: HCT-15 colon
MCF7 breast = test system: MCF7 breast
HOP-62 NSCLC = test system: HOP-62 NSCLC
SK-MEL-5 melanoma = test system: SK-MEL-5 melanoma
OVCAR-8 ovarian = test system: OVCAR-8 ovarian
CAKI-1 renal = test system: CAKI-1 renal
KM12 colon = test system: KM12 colon
CCRF-CEM leukemia = test system: CCRF-CEM leukemia
BT-549 breast = test system: BT-549 breast
T-47D breast = test system: T-47D breast
IGROV1 ovarian = test system: IGROV1 ovarian
NCI-H522 lung = test system: NCI-H522 lung
SF-268 CNS = test system: SF-268 CNS
RPMI-8226 leukemia = test system: RPMI-8226 leukemia
MOLT-4 leukemia = test system: MOLT-4 leukemia
SN12C renal = test system: SN12C renal
SF-539 CNS = test system: SF-539 CNS
HCC-2998 colon = test system: HCC-2998 colon
LOX IMVI melanoma = test system: LOX IMVI melanoma
NCI-H460 lung = test system: NCI-H460 lung
786-0 renal = test system: 786-0 renal
SW-620 colon = test system: SW-620 colon
OVCAR-4 ovarian = test system: OVCAR-4 ovarian

`COc1cc2c(c(OC)c1OC)-c1c(c3ccc([N+](=O)[O-])cc3c(=O)n1CCCN)C2=O` was tested, and the GI50 (UO-31 renal) was 0.892 µM, the TGI (UO-31 renal) was 1.68 µM and the GI50 (TK-10 renal) was 9.89 µM. For the same compound, the TGI (TK-10 renal) was 18.7 µM, the GI50 (RXF 393 renal) was 2.05 µM and the TGI (RXF 393 renal) was 3.86 µM. The GI50 (U251 CNS) was 0.92 µM, the TGI (U251 CNS) was 1.75 µM and the GI50 (MDA-MB-435) was 0.865 µM. It also gave a TGI (MDA-MB-435) of 1.63 µM, a GI50 (NCI-H23 lung) of 2.35 µM and a TGI (NCI-H23 lung) of 10.2 µM. The GI50 (OVCAR-5 ovarian) was 1.77 µM, the TGI (OVCAR-5 ovarian) was 6.35 µM and the GI50 (SF-295 CNS) was 1.86 µM. For the same compound, the TGI (SF-295 CNS) was 7.82 µM, the GI50 (NCI-H226 lung) was 9.38 µM and the TGI (NCI-H226 lung) was 19.4 µM. The GI50 (EKVX NSCLC) was 7.1 µM, the TGI (EKVX NSCLC) was 33 µM and the GI50 (NCI/ADR-RES ovarian) was 5.49 µM. The TGI (NCI/ADR-RES ovarian) was 15.6 µM, the GI50 (MALME-3M melanoma) was 0.952 µM and the TGI (MALME-3M melanoma) was 1.92 µM. It also gave a GI50 (HOP-92 NSCLC) of 7.21 µM, a TGI (HOP-92 NSCLC) of 15.8 µM and a GI50 (MDA-MB-231 breast) of 0.908 µM. The TGI (MDA-MB-231 breast) was 1.74 µM, the GI50 (DU-145 prostate) was 7.27 µM and the TGI (DU-145 prostate) was 16.6 µM. It also gave a GI50 (OVCAR-3 ovarian) of 10.7 µM, a TGI (OVCAR-3 ovarian) of 19.1 µM and a GI50 (UACC-257 melanoma) of 8.22 µM. The TGI (UACC-257 melanoma) was 17 µM, the GI50 (PC-3 prostate) was 7.68 µM and the TGI (PC-3 prostate) was 15 µM. It also gave a GI50 (M14 melanoma) of 0.835 µM, a TGI (M14 melanoma) of 1.53 µM and a GI50 (UACC-62 melanoma) of 9.12 µM. The TGI (UACC-62 melanoma) was 17 µM, the GI50 (COLO 205 colon) was 8.72 µM and the TGI (COLO 205 colon) was greater than 50 µM. It also gave a GI50 (A549 NSCLC) of 1.32 µM, a TGI (A549 NSCLC) of 3.06 µM and a GI50 (HCT-116 colon) of 0.828 µM. For the same compound, the TGI (HCT-116 colon) was 1.53 µM, the GI50 (A498 renal) was 8.22 µM and the TGI (A498 renal) was 18 µM. It also gave a GI50 (K-562 leukemia) of 0.478 µM, a TGI (K-562 leukemia) of 1.33 µM and a GI50 (SK-MEL-2 melanoma) of 1.21 µM. The TGI (SK-MEL-2 melanoma) was 2.77 µM, the GI50 (ACHN renal) was 8.06 µM and the TGI (ACHN renal) was 16.6 µM. For the same compound, the GI50 (HS 578T breast) was 11.1 µM, the TGI (HS 578T breast) was 31.4 µM and the GI50 (SK-OV-3 ovarian) was 12.8 µM. For the same compound, the TGI (SK-OV-3 ovarian) was 25.1 µM, the GI50 (HCT-15 colon) was 8.16 µM and the TGI (HCT-15 colon) was 16.8 µM. For the same compound, the GI50 (MCF7 breast) was 14.2 µM, the TGI (MCF7 breast) was greater than 50 µM and the GI50 (HOP-62 NSCLC) was 0.937 µM. For the same compound, the TGI (HOP-62 NSCLC) was 1.73 µM, the GI50 (SK-MEL-5 melanoma) was 7.15 µM and the TGI (SK-MEL-5 melanoma) was 15.8 µM. The GI50 (OVCAR-8 ovarian) was 1.79 µM, the TGI (OVCAR-8 ovarian) was 6.42 µM and the GI50 (CAKI-1 renal) was 0.895 µM. It also gave a TGI (CAKI-1 renal) of 10.9 µM, a GI50 (KM12 colon) of 6.64 µM and a TGI (KM12 colon) of 18.1 µM. The GI50 (CCRF-CEM leukemia) was 0.826 µM, the TGI (CCRF-CEM leukemia) was 2.12 µM and the GI50 (BT-549 breast) was 14.4 µM. It also gave a TGI (BT-549 breast) of 46.9 µM, a GI50 (T-47D breast) of 1.88 µM and a TGI (T-47D breast) of 7.85 µM. It also gave a GI50 (IGROV1 ovarian) of 8.7 µM, a TGI (IGROV1 ovarian) of 17.1 µM and a GI50 (NCI-H522 lung) of 9.63 µM. For the same compound, the TGI (NCI-H522 lung) was 19.1 µM, the GI50 (SF-268 CNS) was 13.2 µM and the TGI (SF-268 CNS) was 34.6 µM. The GI50 (RPMI-8226 leukemia) was 1.29 µM, the TGI (RPMI-8226 leukemia) was 3.75 µM and the GI50 (MOLT-4 leukemia) was 5.82 µM. The TGI (MOLT-4 leukemia) was 14.2 µM, the GI50 (SN12C renal) was 4 µM and the TGI (SN12C renal) was 11.5 µM. For the same compound, the GI50 (SF-539 CNS) was 1.38 µM, the TGI (SF-539 CNS) was 3.28 µM and the GI50 (HCC-2998 colon) was 9.12 µM. The TGI (HCC-2998 colon) was 17.6 µM, the GI50 (LOX IMVI melanoma) was 1.01 µM and the TGI (LOX IMVI melanoma) was 2.06 µM. For the same compound, the GI50 (NCI-H460 lung) was 15.9 µM, the TGI (NCI-H460 lung) was greater than 50 µM and the GI50 (786-0 renal) was 0.799 µM. The TGI (786-0 renal) was 1.51 µM, the GI50 (SW-620 colon) was 1.03 µM and the TGI (SW-620 colon) was 2.35 µM. The GI50 (OVCAR-4 ovarian) was 2.9 µM and the TGI (OVCAR-4 ovarian) was 12.9 µM.
